Measured values reported in patent publication EP1065215A1 (Boehringer Ingelheim International GmbH, priority 1999, dated 2001).

Tests used:
Assay in all cases: Displacement of [3H]AMPA binding on membranes of transfected HEK293 cells
Details in all cases: mean ± S.E.; for Hill slope: displacement of [3H]AMPA binding, Prism software
GluR1 (1-24) = molecular target: T1, GluR1 (1-24) (Homo sapiens, UniProt P42261)
T1 construct: expressed in transfected cells; host or cells: HEK293, plasmid pHGluR1/pcDNA3
Protocol: (§1) In order to examine the pharmacological identity of the stably expressed recombinant receptors, competitive binding studies were performed.
(§2) The binding studies were carried out as outlined previously (Keinänen et al., 1990; Fletcher et al., 1995). […] The pellets were resuspended in 50 mM Tris-HCl (pH 7.5) and repeated the homogenization and centrifugation. […] The cell membranes were incubated with the radioligand for 60 minutes on ice, and subsequently collected by rapid filtration through GF/C filters. […] The filters were washed rapidly with cold assay buffer. The radioactivity retained in the filters was measured by liquid scintillation counting.

GluR3 (5-42) = molecular target: T2, GluR3 (5-42) (Homo sapiens, UniProt P42263)
T2 construct: expressed in transfected cells; host or cells: HEK293, plasmid pHGluR3/pcDNA3
Protocol: as §1, §2

GluR4 (4-19) = molecular target: T3, GluR4 (4-19) (Homo sapiens, UniProt P48058)
T3 construct: expressed in transfected cells; host or cells: HEK293, plasmid pHGluR4/pcDNA3
Protocol: as §1, §2

[1] = displacement of [3H]AMPA, Cheng-Prusoff equation, 0.1 M KSCN, on ice

T1 sequence (P42261 19-906 isoform P42261-2 limits assumed): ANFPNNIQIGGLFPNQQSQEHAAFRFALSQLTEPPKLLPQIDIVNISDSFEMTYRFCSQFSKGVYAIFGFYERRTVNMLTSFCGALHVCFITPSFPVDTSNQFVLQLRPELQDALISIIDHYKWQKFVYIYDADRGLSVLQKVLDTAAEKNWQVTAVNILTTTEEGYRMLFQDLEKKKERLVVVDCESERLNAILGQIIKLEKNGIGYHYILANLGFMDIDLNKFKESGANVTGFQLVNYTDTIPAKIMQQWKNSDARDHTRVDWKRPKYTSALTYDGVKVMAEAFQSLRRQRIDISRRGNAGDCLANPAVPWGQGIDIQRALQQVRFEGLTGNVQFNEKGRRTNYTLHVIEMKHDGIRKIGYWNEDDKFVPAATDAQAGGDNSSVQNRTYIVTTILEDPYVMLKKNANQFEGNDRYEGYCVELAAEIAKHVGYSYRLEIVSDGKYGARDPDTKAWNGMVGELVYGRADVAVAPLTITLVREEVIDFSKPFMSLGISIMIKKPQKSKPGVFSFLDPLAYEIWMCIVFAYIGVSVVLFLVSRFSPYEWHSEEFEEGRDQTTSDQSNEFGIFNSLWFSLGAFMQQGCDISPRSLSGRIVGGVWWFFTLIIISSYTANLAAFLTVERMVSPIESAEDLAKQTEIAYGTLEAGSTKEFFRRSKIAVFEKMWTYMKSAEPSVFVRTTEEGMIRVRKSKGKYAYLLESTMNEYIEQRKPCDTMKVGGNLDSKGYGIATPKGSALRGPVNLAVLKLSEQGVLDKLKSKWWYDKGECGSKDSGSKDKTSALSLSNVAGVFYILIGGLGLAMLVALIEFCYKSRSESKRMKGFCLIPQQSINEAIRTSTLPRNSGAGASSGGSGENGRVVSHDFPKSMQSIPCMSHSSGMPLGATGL
T2 sequence (P42263 29-894 isoform P42263-2 limits assumed): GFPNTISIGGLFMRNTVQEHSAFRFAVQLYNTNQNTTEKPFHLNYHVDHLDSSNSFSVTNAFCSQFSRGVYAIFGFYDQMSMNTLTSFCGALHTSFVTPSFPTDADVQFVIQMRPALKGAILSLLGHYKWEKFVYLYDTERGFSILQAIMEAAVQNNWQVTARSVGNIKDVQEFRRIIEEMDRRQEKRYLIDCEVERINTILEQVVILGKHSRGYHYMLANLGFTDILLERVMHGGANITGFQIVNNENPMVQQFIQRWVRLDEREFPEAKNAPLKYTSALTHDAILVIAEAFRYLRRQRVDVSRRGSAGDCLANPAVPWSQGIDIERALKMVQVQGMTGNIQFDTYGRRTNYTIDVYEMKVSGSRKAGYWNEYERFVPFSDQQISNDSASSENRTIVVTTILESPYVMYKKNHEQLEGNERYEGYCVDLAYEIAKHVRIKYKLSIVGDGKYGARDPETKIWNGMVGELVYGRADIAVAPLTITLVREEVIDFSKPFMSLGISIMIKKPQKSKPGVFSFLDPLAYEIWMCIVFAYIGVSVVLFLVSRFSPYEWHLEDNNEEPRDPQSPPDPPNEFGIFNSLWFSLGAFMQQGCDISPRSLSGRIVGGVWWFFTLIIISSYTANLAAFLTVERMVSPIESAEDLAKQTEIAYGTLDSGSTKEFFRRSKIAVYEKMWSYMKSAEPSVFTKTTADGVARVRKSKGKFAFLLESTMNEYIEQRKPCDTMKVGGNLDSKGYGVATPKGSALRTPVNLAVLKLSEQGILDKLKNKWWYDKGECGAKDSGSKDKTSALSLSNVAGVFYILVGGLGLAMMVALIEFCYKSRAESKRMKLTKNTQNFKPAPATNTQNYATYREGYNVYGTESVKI
T3 sequence (P48058 21-902): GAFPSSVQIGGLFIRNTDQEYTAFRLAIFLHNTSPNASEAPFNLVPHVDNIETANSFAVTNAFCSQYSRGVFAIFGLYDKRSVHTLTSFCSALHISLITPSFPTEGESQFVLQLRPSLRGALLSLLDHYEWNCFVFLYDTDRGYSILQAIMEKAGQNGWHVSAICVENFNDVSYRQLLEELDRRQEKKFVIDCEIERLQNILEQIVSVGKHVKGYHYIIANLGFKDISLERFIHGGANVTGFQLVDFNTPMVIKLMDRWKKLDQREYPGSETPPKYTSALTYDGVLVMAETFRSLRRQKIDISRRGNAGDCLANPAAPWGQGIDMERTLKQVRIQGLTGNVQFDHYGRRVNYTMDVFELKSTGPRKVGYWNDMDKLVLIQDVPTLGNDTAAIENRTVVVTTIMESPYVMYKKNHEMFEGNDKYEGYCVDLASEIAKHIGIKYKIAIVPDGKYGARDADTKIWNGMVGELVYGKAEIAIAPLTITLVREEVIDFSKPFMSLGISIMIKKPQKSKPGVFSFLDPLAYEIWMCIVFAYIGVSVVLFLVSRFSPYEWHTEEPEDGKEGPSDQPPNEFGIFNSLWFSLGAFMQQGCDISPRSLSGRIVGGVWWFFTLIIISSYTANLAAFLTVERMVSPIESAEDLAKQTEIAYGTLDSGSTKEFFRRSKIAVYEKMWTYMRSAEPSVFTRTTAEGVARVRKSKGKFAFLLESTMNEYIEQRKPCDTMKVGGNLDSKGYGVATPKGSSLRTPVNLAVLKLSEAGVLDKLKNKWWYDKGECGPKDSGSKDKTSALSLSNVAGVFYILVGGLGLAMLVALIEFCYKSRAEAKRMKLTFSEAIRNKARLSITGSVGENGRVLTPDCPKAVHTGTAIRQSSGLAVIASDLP

SMILES	Hill slope (GluR1 (1-24))	Hill slope (GluR3 (5-42))	Hill slope (GluR4 (4-19))	Ki (GluR1 (1-24); [1])	Ki (GluR3 (5-42); [1])	Ki (GluR4 (4-19); [1])
N#Cc1cc2[nH]c(=O)c(=O)[nH]c2cc1[N+](=O)[O-] [CNQX]	-1.00 ± 0.06	-0.83 ± 0.06	-0.86 ± 0.06	–	–	–
CN1Cc2c(S(=O)(=O)N(C)C)cc3c(c2C1)NC(=O)C3=NO [NS257]	-0.85 ± 0.08	-1.01 ± 0.22	-0.83 ± 0.03	1970 ± 148 nM	967 ± 124 nM	1050 ± 78 nM
